Columns and labels:
[1] = tested on: HEL-92-1-17 cells; experiment: Matador assay, Digitonin-induced death of HEL cells expressing a luciferase reporter; type: cell-based; details: Digitonin 30 μg/ml, 1 hour
Description: A 100× stock solution of native coelenterazine (CTZ; Nanolight, cat #303) was made by dissolving 1 mg of lyophilized CTZ powder in 1.1 ml of 100% Methanol supplemented with 30 μl of 6N HCl to avoid oxidation of CTZ with time. To make CTZ assay buffer, the 100× stock solution of CTZ was diluted to 0.5× concentration in PBS. Unless indicated otherwise, a total volume of 15 μl of the CTZ assay buffer (as prepared above) was added using an auto-injector to each well of a 384-well white plate (Greiner, 384 well white plate cat #781075) containing cells expressing the non-secretory form of a copepod luciferase in approximately 50-60 μl volume of medium and plates were read for luminescence in well-mode using BioTek synergyH4 plate reader. In the well-mode, an auto-injector or dispenser is used and assay buffer is added in one well, luminescence is read in that well, then the assay buffer is added to next well and luminescence is read in that well. Where indicated, assay was also conducted in the endpoint mode. In the endpoint mode, an autoinjector or dispenser is not used, the assay buffer is added in all wells manually using a pipette and then luminescence is read in all wells of the plate. For 96 well plates, cells were plated in 200 μl of media and approximately 50 μl of 0.5×CTZ assay buffer was added. […]

[2] = tested on: Nalm6 cells; experiment: Dual reporter Matador assay, Digitonin-induced death of Nalm6 cells; type: cell-based; details: Nalm6 cells expressing both GLuc and FfLuc; Digitonin 30 μg/ml, 90 minutes
Description: Briefly, 20000 cells in 20 μl media were plated in each well of a 384 well plate followed by addition of 20 μl of Digitonin (final concentration 30 μg/ml) or media alone (20 μl) and incubated for 90 minutes.

C[C@@H]1CC[C@@]2(OC1)O[C@H]1[C@@H](O)[C@H]3[C@@H]4CC[C@H]5C[C@@H](O[C@@H]6O[C@H](CO)[C@H](O[C@@H]7O[C@H](CO)[C@@H](O)[C@H](O[C@@H]8OC[C@@H](O)[C@H](O)[C@H]8O)[C@H]7O[C@@H]7O[C@H](CO)[C@H](O)[C@H](O[C@@H]8O[C@H](CO)[C@@H](O)[C@H](O)[C@H]8O)[C@H]7O)[C@H](O)[C@H]6O)[C@H](O)C[C@]5(C)[C@H]4CC[C@]3(C)[C@H]1[C@@H]2C [Digitonin]
GLuc luciferase activity ([1]; HEL-92-1-17 cells stably expressing GLuc, evident even in wells containing a single cell): increase in GLuc luciferase activity | NLuc activity ([1]; HEL-92-1-17 cells stably expressing NLuc): increase in NLuc activity | FfLuc and GLuc activities [2]: increase in both FfLuc and GLuc activities

— US11307205B2, “Non-radioactive cytotoxicity assays” (University of Southern California, priority 2016, dated 2022)
